Read-outs that look alike come from different tables or passages of the source.
Key:
Cathepsin D (Cat D) = Cathepsin D (Cat D) (Homo sapiens, UniProt P07339); experiment: In vitro enzymatic Cathepsin D (Cat D) FRET assay; assay type: biochemical
Method: In Vitro Enzymatic Cathepsin D (Cat D) FRET (Fluorescence Resonance Energy Transfer) Assay
Recombinant Cat D was expressed in CHO cells. The assay buffer for CathepsinD is 0.05 M citrate pH 3.5, 10% DMSO final, 5 mM CHAPS. The Cat D enzyme (9 nM) is pre-incubated for one hour with inhibitors, typically in about 1 uL of DMSO according to a serial dilution, is added thereto. The assays are effectively started by the addition of different FRET substrates (20 nM for Cat D) and the combination is incubated for one hour. The FRET assay is terminated with by addition of Tris buffer, which raises the pH to neutrality, and the fluorescence is determined. The FRET substrate is a peptide with commercially available fluorophore and quencher, on opposite sides of the BACE cleavage site. The Cat D substrate peptide sequence is based on sequence #1 of Table 1 from Gulnik et al. FEBS Letters v413 p 379-384 1997. Proteolytic cleavage of the FRET substrate releases quenching of fluorescence (Cat D excitation 500 nm and emission 580 nm). […]
See, for instance, examples 8, 12, 15, 16, 18, 21-23, 24, 25, 26, 29, 30, 32, 41-42, 45, 53, 54, 57, 63, 67-69, 72-74, 76, 79-81, 83 & 84 (to point to just a few; referring to data in Table 2). […] See, for instance, examples 8, 12, 15, 18, 21-23, 25, 29, 30, 32, 41-42, 45, 54, 57, 67-68, 72-73, 76, 80-81, 84, 86, 91-92 & 100 (to point out those from compound examples 1-100; and with reference to data in Table 2).

[1] = target: Beta Secretase enzyme (BACE) (Homo sapiens, UniProt P56817); experiment: In vitro enzymatic BACE FRET assay; assay type: biochemical; conditions: average IC50; read-out: BACE1 FRET assay IC50
Sequence of Beta Secretase enzyme (BACE) (P56817 46-501): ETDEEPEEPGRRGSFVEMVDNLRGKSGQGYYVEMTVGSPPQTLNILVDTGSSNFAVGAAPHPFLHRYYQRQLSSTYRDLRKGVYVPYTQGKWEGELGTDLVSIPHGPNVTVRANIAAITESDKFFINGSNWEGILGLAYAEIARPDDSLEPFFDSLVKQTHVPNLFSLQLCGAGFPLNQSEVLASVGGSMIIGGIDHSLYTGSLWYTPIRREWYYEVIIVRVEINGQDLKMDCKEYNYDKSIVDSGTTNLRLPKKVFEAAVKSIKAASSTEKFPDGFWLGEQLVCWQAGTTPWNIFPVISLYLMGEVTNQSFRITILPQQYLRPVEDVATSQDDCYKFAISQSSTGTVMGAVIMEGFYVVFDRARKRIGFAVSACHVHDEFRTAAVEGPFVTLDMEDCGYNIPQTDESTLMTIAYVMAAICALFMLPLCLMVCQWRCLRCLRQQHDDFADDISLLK
Method: In Vitro Enzymatic BACE FRET (Fluorescence Resonance Energy Transfer) Assay (Enzyme Assay Data in the Example Table I)
The assay buffer used in this screen is 0.05 M acetate, pH 4.2, 10% DMSO final, 100 uM genapol (which is a nonionic detergent, below its Critical Micelle Concentration). The Beta Secretase enzyme (0.2 nM) is pre-incubated for one hour with inhibitors, typically in about 1 uL of DMSO according to a serial dilution, are added thereto. This assay is effectively started by the addition of FRET substrate (50 nM) and the combination is incubated for one hour. The FRET assay is terminated with by addition of Tris buffer, which raises the pH to neutrality, and the fluorescence is determined. The FRET substrate is a peptide with commercially available fluorophore and quencher, on opposite sides of the BACE cleavage site. Proteolytic cleavage of the FRET substrate releases quenching of fluorescence (excitation 488 nm and […]).

[2] = test system: Aβ 40 in conditioned medium of cells stably expressing Amyloid Precursor Protein (APP); experiment: In vitro BACE cell-based assay (Aβ 40 sandwich ELISA); conditions: Homo sapiens, HEK293; HEK cell; average IC50
Method: In Vitro BACE Cell-Based Assay
The cell-based assay measures inhibition or reduction of […] in conditioned medium of test compound treated cells expressing amyloid precursor protein.
Cells stably expressing Amyloid Precursor Protein (APP) were plated at a density of 40K cells/well in 96 well plates (Costar). The cells were cultivated for 24 hours at 37° C. and 5% CO2 in DMEM supplemented with 10% FBS. The test compounds were then added to cells in 10-point dose response concentrations with the starting concentration being either 100 μM or 10 μM. The compounds were diluted from stock solutions in DMSO and the final DMSO concentration of the test compounds on cells was 0.1%. After 24 h of incubation with the test compounds the supernatant conditioned media was collected and the Aβ 40 levels were determined using a sandwich ELISA. The IC50 of the compound was calculated from the percent of control or percent inhibition of Aβ 40 as a function of the concentration of the test compound.
The sandwich ELISA to detect Aβ 40 was performed in 96 well microtiter plates, which were pre-treated with goat anti-rabbit IgG (Pierce). The capture and detecting antibody pair that were used to detect Aβ 40 from cell supernatants were affinity purified pAb40 (Biosource) and biotinylated 6E10 (Signet Labs Inc.), respectively. The optimal concentration for the pAb40 antibody was 3 μg/ml in Superblock/TBS (Pierce) that was supplemented with 0.05% Tween 20 (Sigma). Optimal concentration for the detection antibody 6E10-biotinylated was 0.5 μg/ml in Superblock/TBS (Pierce) that had been supplemented with 2% normal goat serum and 2% normal mouse serum.
Cellular supernatants were incubated with the capture antibody for 3 h at 4° C., followed by 3 wash steps in TBS-tween (0.05%). The detecting antibody incubation was for 2 h at 4° C., again followed by the wash steps as described previously. The final readout of the ELISA is Time-Resolved Fluorescence (counts per minute) using Delfia reagents Streptavidin-Europium and Enhancement solutions (Perkin Elmer) and the Victor 2 multilabel counter (Perkin Elmer).

[3] = text summary referring to data in Table 2

Sequence of Cathepsin D (Cat D) (P07339 65-412, species assumed): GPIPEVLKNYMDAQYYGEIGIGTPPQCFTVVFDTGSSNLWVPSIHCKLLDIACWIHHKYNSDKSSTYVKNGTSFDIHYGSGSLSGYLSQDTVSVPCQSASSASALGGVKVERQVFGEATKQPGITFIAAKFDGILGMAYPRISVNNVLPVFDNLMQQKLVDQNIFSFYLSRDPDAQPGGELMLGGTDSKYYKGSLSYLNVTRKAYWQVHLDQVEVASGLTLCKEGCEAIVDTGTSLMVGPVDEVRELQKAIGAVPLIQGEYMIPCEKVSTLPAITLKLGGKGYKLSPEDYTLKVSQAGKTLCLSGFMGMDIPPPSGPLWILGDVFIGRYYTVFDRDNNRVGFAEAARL

| Structure (SMILES) | IC50 (Cathepsin D (Cat D); read-out: CatD IC50) | IC50 (Cathepsin D (Cat D); [3]) | IC50 [1] | IC50 [2] |
| --- | --- | --- | --- | --- |
| COc1cccnc1Nc1ccc2c(c1)[C@@]1(C)N=C(N)C(C)(C)S(=O)(=O)[C@@H]1CCO2 [Example 13, (4aR,11bR)-N^~10^~-(3-methoxy-2-pyridinyl)-3,3,11b-trimethyl-4a,5,6,11b-tetrahydro-3H-[1]benzoxepino[4,5-b][1,4]thiazine-2,10-diamine 4,4-dioxide] | 369 µM |  | 0.094 µM | 0.073 µM |
| CC#C[C@H](C)Oc1cnc(C(=O)Nc2ccc3c(c2)[C@@]2(C)N=C(N)C(C)(C)S(=O)(=O)[C@@H]2CCO3)cn1 [Example 15, N-((4aR,11bR)-2-amino-3,3,11b-trimethyl-4,4-dioxido-4a,5,6,11b-tetrahydro-3H-[1]benzoxepino[4,5-b][1,4]thiazin-10-yl)-5-(((1S)-1-methyl-2-butyn-1-yl)oxy)-2-pyrazinecarboxamide] | 1970 µM | > 1200 µM | 0.003 µM | 0.0005 µM |
| CC#C[C@@H](C)Oc1cnc(C(=O)Nc2ccc3c(c2)[C@@]2(C)N=C(N)C(C)(C)S(=O)(=O)[C@@H]2CCO3)cn1 [Example 16, N-((4aR,11bR)-2-amino-3,3,11b-trimethyl-4,4-dioxido-4a,5,6,11b-tetrahydro-3H-[1]benzoxepino[4,5-b][1,4]thiazin-10-yl)-5-(((1R)-1-methyl-2-butyn-1-yl)oxy)-2-pyrazinecarboxamide] | 979 µM | > 800 µM | 0.03 µM | 0.138 µM |
| CC1(C)C(N)=N[C@]2(C)c3cc(Nc4nccc5cc(Cl)cnc45)cnc3OCC[C@H]2S1(=O)=O [Example 19, (4aR,11bR)-N^~10^~-(3-chloro-1,7-naphthyridin-8-yl)-3,3,11b-trimethyl-4a,5,6,11b-tetrahydro-3H-pyrido[3′,2′:6,7]oxepino[4,5-b][1,4]thiazine-2,10-diamine4,4-dioxide] | 263 µM |  | 0.003 µM | 0.019 µM |
| COc1cnc(C(=O)Nc2ccc3c(c2)[C@@]2(C)N=C(N)C(C)(C)S(=O)(=O)[C@@H]2CCO3)c(C)n1 [Example 22, N-((4aR,11bR)-2-amino-3,3,11b-trimethyl-4,4-dioxido-4a,5,6,11b-tetrahydro-3H-[1]benzoxepino[4,5-b][1,4]thiazin-10-yl)-5-methoxy-3-methyl-2-pyrazinecarboxamide] | 1240 µM |  | 0.017 µM | 0.007 µM |
| Cc1nc(OCC(F)(F)F)cnc1C(=O)Nc1ccc2c(c1)[C@@]1(C)N=C(N)C(C)(C)S(=O)(=O)[C@@H]1CCO2 [Example 23, N-((4aR,11bR)-2-amino-3,3,11b-trimethyl-4,4-dioxido-4a,5,6,11b-tetrahydro-3H-[1]benzoxepino[4,5-b][1,4]thiazin-10-yl)-3-methyl-5-(2,2,2-trifluoroethoxy)-2-pyrazinecarboxamide] | 1400 µM |  | 0.003 µM | 0.01 µM |
| CC1(C)C(N)=N[C@]2(C)c3cc(NC(=O)c4ncc(Cl)cc4Cl)ccc3OCC[C@H]2S1(=O)=O [Example 24, N-((4aR,11bR)-2-amino-3,3,11b-trimethyl-4,4-dioxido-4a,5,6,11b-tetrahydro-3H-[1]benzoxepino[4,5-b][1,4]thiazin-10-yl)-3,5-dichloro-2-pyridinecarboxamide] | 969 µM | > 800 µM | 0.003 µM | 0.001 µM |
| CC1(C)C(N)=N[C@]2(C)c3cc(NC(=O)c4ncc(C(F)(F)F)cc4Cl)ccc3OCC[C@H]2S1(=O)=O [Example 25, N-((4aR,11bR)-2-amino-3,3,11b-trimethyl-4,4-dioxido-4a,5,6,11b-tetrahydro-3H-[1]benzoxepino[4,5-b][1,4]thiazin-10-yl)-3-chloro-5-(trifluoromethyl)-2-pyridinecarboxamide] | 3530 µM | > 1200 µM | 0.007 µM | 0.002 µM |
| Cc1cc(Cl)cnc1C(=O)Nc1ccc2c(c1)[C@@]1(C)N=C(N)C(C)(C)S(=O)(=O)[C@@]1(C)CCO2 [Example 26, N-((4aS,11bR)-2-amino-3,3,4a,11b-tetramethyl-4,4-dioxido-4a,5,6,11b-tetrahydro-3H-[1]benzoxepino[4,5-b][1,4]thiazin-10-yl)-5-chloro-3-methyl-2-pyridinecarboxamide] | 995 µM | > 800 µM | 0.003 µM | 0.001 µM |

More lines, now with the values ahead:

| IC50 (Cathepsin D (Cat D); read-out: CatD IC50) | IC50 (Cathepsin D (Cat D); [3]) | IC50 [1] | IC50 [2] | Structure (SMILES) |
| --- | --- | --- | --- | --- |
| 1040 µM | > 1200 µM | 0.003 µM | 0.001 µM | Cc1cc(C#N)cnc1C(=O)Nc1ccc2c(c1)[C@@]1(C)N=C(N)C(C)(C)S(=O)(=O)[C@@H]1CCC2 [Example 12, N-((4aR,11bR)-2-amino-3,3,11b-trimethyl-4,4-dioxido-3,4a,5,6,7,11b-hexahydrobenzo[3,4]cyclohepta[1,2-b][1,4]thiazin-10-yl)-5-cyano-3-methyl-2-pyridinecarboxamide] |
| > 400 µM |  | 1.46 µM | 0.833 µM | Cc1cc(Cl)cnc1C(=O)Nc1ccc2c(c1)[C@]1(C)N=C(N)C(C)(C)S(=O)(=O)[C@H]1CCO2 [Example 17, N-((4aS,11bS)-2-amino-3,3,11b-trimethyl-4,4-dioxido-4a,5,6,11b-tetrahydro-3H-benzo[6,7]oxepino[4,5-b][1,4]thiazin-10-yl)-5-chloro-3-methylpicolinamide] |
| 1290 µM | > 1200 µM | 0.006 µM | 0.014 µM | Cc1cc(Cl)cnc1C(=O)Nc1cnc2c(c1)[C@@]1(C)N=C(N)C(C)(C)S(=O)(=O)[C@@H]1CCO2 [Example 18, N-((4aR,11bR)-2-amino-3,3,11b-trimethyl-4,4-dioxido-4a,5,6,11b-tetrahydro-3H-pyrido[3′,2′:6,7]oxepino[4,5-b][1,4]thiazin-10-yl)-5-chloro-3-methyl-2-pyridinecarboxamide] |
| 377 µM |  | 0.019 µM | 0.022 µM | Cc1cc(Cl)cnc1C(=O)Nc1cnc2c(c1)[C@@]1(C)N=C(N)C(C)(C)S(=O)(=O)[C@H]1CCO2 [Example 20, N-((4aS,11bR)-2-amino-3,3,11b-trimethyl-4,4-dioxido-4a,5,6,11b-tetrahydro-3H-pyrido[3′,2′:6,7]oxepino[4,5-b][1,4]thiazin-10-yl)-5-chloro-3-methyl-2-pyridinecarboxamide] |
| 1420 µM |  | 0.007 µM | 0.026 µM | Cc1cc(C#N)cnc1C(=O)Nc1cnc2c(c1)[C@@]1(C)N=C(N)C(C)(C)S(=O)(=O)[C@H]1CCO2 [Example 21, N-((4aS,11bR)-2-amino-3,3,11b-trimethyl-4,4-dioxido-4a,5,6,11b-tetrahydro-3H-pyrido[3′,2′:6,7]oxepino[4,5-b][1,4]thiazin-10-yl)-5-cyano-3-methyl-2-pyridinecarboxamide] |
